What was measured:
Format in all cases: in vivo
[1] = tested on: Matricaria inodora (scentless chamomile); experiment: Greenhouse postemergence herbicidal effect on MATIN
Description: (§1) Greenhouse Trial Methodology—Evaluation of Postemergence Herbicidal Effect
(§2) Seeds of the desired test plant species were planted in a 90:10% v/v (volume/volume) mixture of PRO-MIX® BX (Premier Tech Horticulture, Quakertown, Pa., USA) and PROFILE® GREENS GRADE™ (Profile Products LLC, Buffalo Grove, Ill., USA) planting mixture, which typically has a pH of 5.2 to 6.2 and an organic matter content of at least 50 percent, in plastic pots with a surface area of 103.2 square centimeters (cm^2). In some aspects or embodiments, to help ensure good germination and healthy plants, a fungicide treatment and/or other chemical or physical treatment was applied. The plants were grown for 7-36 days (d) in a greenhouse with an approximate 14-hour (h) photoperiod which was maintained at about 23° C. during the day and 22° C. during the night. Nutrients and water were added on a regular basis and supplemental lighting was provided with overhead metal halide 1000-Watt lamps as necessary. The plants were employed for testing when they reached the second or third true leaf stage.
(§3) Emulsifiable concentrates of each of each pyridine carboxylate herbicide (Compound A or Compound B) were prepared at 100 grams acid equivalent per liter (g ae/L). The emulsifiable concentrates also included a safener, cloquintocet mexyl, at 120 grams active ingredient per liter (g ai/L). An aliquot of each emulsifiable concentrate was placed in a 25 mL glass vial and diluted with an aqueous mixture of 1.25% (v/v) ACTIROB® B esterified rapeseed oil (Bayer Crop Science, Research Triangle Park, N.C., USA) or MSO® Concentrate with LECI-TECH® methylated soybean oil (Loveland Products, Loveland, Colo., USA) to obtain concentrated stock solutions at the highest application rate for each herbicide, based upon a 12 milliliter (mL) application volume at a rate of 187 liters per hectare (L/ha). The concentrated stock solutions were further diluted with an aqueous mixture of 1.25% v/v ACTIROB® B or MSO® Concentrate with LECI-TECH® to obtain stock solutions at reduced application rates for each herbicide. Spray solutions of the herbicide combinations (Compound A or Compound B plus PROTOX inhibitor herbicide) were prepared by adding weighed amounts or aliquots of the PROTOX inhibitor herbicides to the stock solutions of Compound A or Compound B to form 12-mL spray solutions in two-way combinations. […]
(§4) The treated plants and control plants were placed in a greenhouse as described above and watered by sub-irrigation to prevent wash-off of the test compounds. After 20-22 d, the condition of the test plants as compared with that of the control plants was determined visually and scored on a scale of 0 to 100 percent where 0 corresponds to no injury and 100 corresponds to complete kill.

[2] = tested on: Digitaria sanguinalis (large crabgrass); experiment: Greenhouse postemergence herbicidal effect on DIGSA
Description: as §1, §2
(§5) Emulsifiable concentrates of each of each pyridine carboxylate herbicide (Compound A or Compound B) were prepared at 100 grams acid equivalent per liter (g ae/L). The emulsifiable concentrates also included a safener, cloquintocet mexyl, at 120 grams active ingredient per liter (g ai/L). […]
as §4

[3] = tested on: Hordeum vulgare (spring barley); experiment: Greenhouse postemergence phytotoxicity on crop HORVS
Description: as §1, §2
(§6) Emulsifiable concentrates of each of each pyridine carboxylate herbicide (Compound A or Compound B) were prepared at 100 grams acid equivalent per liter (g ae/L). The emulsifiable concentrates also included a safener, cloquintocet mexyl, at 120 grams active ingredient per liter (g ai/L). An aliquot of each emulsifiable concentrate was placed in a 25 mL glass vial and diluted with an aqueous mixture of 1.25% (v/v) ACTIROB® B esterified rapeseed oil (Bayer Crop Science, Research Triangle Park, N.C., USA) or MSO® Concentrate with LECI-TECH® methylated soybean oil (Loveland Products, Loveland, Colo., USA) to obtain concentrated stock solutions at the highest application rate for each herbicide, based upon a 12 milliliter (mL) application volume at a rate of 187 liters per hectare (L/ha). The concentrated stock solutions were further diluted with an aqueous mixture of 1.25% v/v ACTIROB® B or MSO® Concentrate with LECI-TECH® to obtain stock solutions at reduced application rates for each herbicide. Spray solutions of the herbicide combinations (Compound A or Compound B plus PROTOX inhibitor herbicide) were prepared by adding weighed amounts or aliquots of the PROTOX inhibitor herbicides to the stock solutions of Compound A or Compound B to form 12-mL spray solutions in two-way combinations.
(§7) The spray solutions were applied to the plant material with an overhead Mandel track sprayer equipped with 8002E nozzles calibrated to deliver 187 L/ha over an application area of 0.503 square meters (m^2) at a spray height of 18 inches (43 centimeters (cm)) above the average plant canopy. Control plants were sprayed in the same manner with the solvent blank. All pyridine carboxylate herbicide (component a) application rates are given as “g ae/ha” and all PROTOX inhibitor herbicide (component b) application rates are given as “g ai/ha.”
as §4

[4] = tested on: Triticum aestivum (winter wheat); experiment: Greenhouse postemergence phytotoxicity on crop TRZAW
Description: as §1, §2, §3, §4

[5] = tested on: Matricaria discoidea (pineapple weed); experiment: Greenhouse postemergence herbicidal effect on MATMT
Description: as §1, §2, §3, §4

[6] = tested on: Chenopodium album L. (common lambsquarters); experiment: Greenhouse postemergence herbicidal effect on CHEAL
Description: as §1, §2, §6, §7, §4

[7] = tested on: Veronica hederifolia (ivy-leaved speedwell); experiment: Greenhouse postemergence herbicidal effect on VERHE
Description: as §1, §2, §3, §4

[8] = tested on: Sinapis arvensis (wild mustard); experiment: Greenhouse postemergence herbicidal effect on SINAR
Description: as §1, §2, §6, §7, §4

[9] = tested on: Echinochloa crus-galli (barnyard grass); experiment: Greenhouse postemergence herbicidal effect on ECHCG
Description: as §1, §2, §5, §4

[10] = tested on: Polygonum convolvulus (wild buckwheat); experiment: Greenhouse postemergence herbicidal effect on POLCO
Description: as §1, §2, §6, §7, §4

[11] = tested on: Veronica persica (Persian speedwell); experiment: Greenhouse postemergence herbicidal effect on VERPE
Description: as §1, §2, §3, §4

[12] = tested on: Papaver rhoeas (herbicide-resistant poppy); experiment: Greenhouse postemergence herbicidal effect on PAPRH-RES
Description: as §1, §2, §3, §4

[13] = tested on: Rumex obtusifolius (broad-leaf dock); experiment: Greenhouse postemergence herbicidal effect on RUMOB
Description: as §1, §2, §6, §7, §4

[14] = tested on: Matricaria chamomilla (wild chamomile); experiment: Greenhouse postemergence herbicidal effect on MATCH
Description: as §1, §2, §6, §7, §4

[15] = Compound A 7.5, Oxyfluorfen 0 g/ha
[16] = Compound A 10, Oxyfluorfen 0 g/ha
[17] = Compound A 15, Oxyfluorfen 0 g/ha
[18] = Compound A 7.5, Carfentrazone-ethyl 0 g/ha
[19] = Compound A 7.5, Pyraclonil 0 g/ha
[20] = Compound A 7.5, Pyraflufen-ethyl 0 g/ha
[21] = Compound A 10, Carfentrazone-ethyl 0 g/ha
[22] = Compound A 10, Pyraclonil 0 g/ha
[23] = Compound A 10, Pyraflufen-ethyl 0 g/ha

N#CCOC(=O)c1nc(-c2ccc3cc[nH]c3c2F)c(F)c(N)c1Cl [Compound A, cyanomethyl 4-amino-3-chloro-5-fluoro-6-(7-fluoro-1H-indol-6-yl)pyridine-2-carboxylate]
% visual injury, Obs [1, 15]: 55% | % visual injury, Obs [1, 16]: 60% | % visual injury, Obs [1, 17]: 83% | % visual injury, Obs ([2]; Compound A 7.5, Bifenox 0 g/ha): 13% | % visual injury, Obs ([2]; Compound A 10, Bifenox 0 g/ha): 25% | % visual injury, Obs [3, 18]: 8% | % visual injury, Obs [3, 15]: 0% | % visual injury, Obs [3, 19]: 8% | % visual injury, Obs [3, 20]: 0% | % visual injury, Obs [3, 21]: 0% | % visual injury, Obs [3, 16]: 0% | % visual injury, Obs [3, 22]: 0% | % visual injury, Obs [3, 23]: 0% | % visual injury, Obs [3, 17]: 0% | % visual injury, Obs [4, 15]: 0% | % visual injury, Obs [4, 16]: 0% | % visual injury, Obs [4, 17]: 0% | % visual injury, Obs [5, 15]: 20% | % visual injury, Obs [5, 16]: 20% | % visual injury, Obs [5, 17]: 63% | % visual injury, Obs [6, 19]: 70% | % visual injury, Obs [6, 20]: 75% | % visual injury, Obs [6, 22]: 83% | % visual injury, Obs [6, 23]: 80% | % visual injury, Obs [7, 15]: 68% | % visual injury, Obs [7, 16]: 73% | % visual injury, Obs [7, 17]: 75% | % visual injury, Obs [8, 15]: 88% | % visual injury, Obs [8, 19]: 88% | % visual injury, Obs [8, 20]: 83% | % visual injury, Obs [8, 16]: 91% | % visual injury, Obs [8, 22]: 92% | % visual injury, Obs [8, 23]: 88% | % visual injury, Obs [8, 17]: 91% | % visual injury, Obs ([9]; Compound A 7.5, Bifenox 0 g/ha): 80% | % visual injury, Obs ([9]; Compound A 10, Bifenox 0 g/ha): 88% | % visual injury, Obs [10, 18]: 70% | % visual injury, Obs [10, 15]: 65% | % visual injury, Obs [10, 19]: 70% | % visual injury, Obs [10, 20]: 30% | % visual injury, Obs [10, 21]: 78% | % visual injury, Obs [10, 16]: 78% | % visual injury, Obs [10, 22]: 78% | % visual injury, Obs [10, 23]: 43% | % visual injury, Obs [10, 17]: 85% | % visual injury, Obs [11, 15]: 78% | % visual injury, Obs [11, 16]: 90% | % visual injury, Obs [11, 17]: 93% | % visual injury, Obs [12, 15]: 96% | % visual injury, Obs [12, 16]: 98% | % visual injury, Obs [12, 17]: 100% | % visual injury, Obs ([13]; Compound A 7.5, Bifenox 0 g/ha): 13% | % visual injury, Obs ([13]; Compound A 7.5, Saflufenacil 0 g/ha): 20% | % visual injury, Obs ([13]; Compound A 10, Bifenox 0 g/ha): 8% | % visual injury, Obs ([13]; Compound A 10, Saflufenacil 0 g/ha): 13% | % visual injury, Obs [14, 15]: 23% | % visual injury, Obs [14, 20]: 10% | % visual injury, Obs [14, 16]: 35% | % visual injury, Obs [14, 23]: 20% | % visual injury, Obs [14, 17]: 45%
